Measurements from the supplement of paper PMC10307832.

How the values were obtained:
Experiment in all cases: relative viability (nuclei count vs DMSO), 5 days (fraction); higher = more cells survive
AZ3146 + Phenformin = compound: CN1CCC(CC1)OC2=CC(=C(C=C2)NC3=NC=C4C(=N3)N(C(=O)N4C)C5CCCC5)OC [AZ3146] + N=C(N)NC(=N)NCCc1ccccc1 [Phenformin] (partner 250 µM)
In short: (§1)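 Five library-drug doses in √10 steps were combined with a fixed anchor-drug dose, or a single drug was given alone, by pin tool to lung cancer cell lines in 1536-well plates the day after seeding. Nuclei were stained and counted after 5 days. Relative viability is the nuclei count in treated wells over that in vehicle wells, taken as the median of duplicate plates.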

GSK-J4 + Dasatinib = compound: CCOC(=O)CCNc1cc(N2CCc3ccccc3CC2)nc(-c2ccccn2)n1 [GSK-J4] + Cc1nc(Nc2ncc(C(=O)Nc3c(C)cccc3Cl)s2)cc(N2CCN(CCO)CC2)n1 [Dasatinib] (partner 0.075 µM)
In short: as §1

AZ3146 + Foretinib = compound: CN1CCC(CC1)OC2=CC(=C(C=C2)NC3=NC=C4C(=N3)N(C(=O)N4C)C5CCCC5)OC [AZ3146] + COc1cc2c(Oc3ccc(NC(=O)C4(C(=O)Nc5ccc(F)cc5)CC4)cc3F)ccnc2cc1OCCCN1CCOCC1 [Foretinib] (partner 0.25 µM)
In short: as §1

GSK-J4 + Alpelisib = compound: CCOC(=O)CCNc1cc(N2CCc3ccccc3CC2)nc(-c2ccccn2)n1 [GSK-J4] + Cc1nc(NC(=O)N2CCC[C@H]2C(N)=O)sc1-c1ccnc(C(C)(C)C(F)(F)F)c1 [Alpelisib] (partner 2 µM)
In short: as §1

Row | Cell Line | relative viability (AZ3146 + Phenformin; first compound 0.08 µM) | relative viability (AZ3146 + Phenformin; first compound 0.253 µM) | relative viability (AZ3146 + Phenformin; first compound 0.8 µM) | relative viability (AZ3146 + Phenformin; first compound 2.53 µM) | relative viability (AZ3146 + Phenformin; first compound 8 µM) | relative viability (GSK-J4 + Dasatinib; first compound 0.5 µM) | relative viability (GSK-J4 + Dasatinib; first compound 1.581 µM) | relative viability (GSK-J4 + Dasatinib; first compound 5 µM) | relative viability (GSK-J4 + Dasatinib; first compound 15.81 µM) | relative viability (GSK-J4 + Dasatinib; first compound 50 µM) | relative viability (AZ3146 + Foretinib; first compound 0.08 µM) | relative viability (AZ3146 + Foretinib; first compound 0.253 µM) | relative viability (AZ3146 + Foretinib; first compound 0.8 µM) | relative viability (AZ3146 + Foretinib; first compound 2.53 µM) | relative viability (AZ3146 + Foretinib; first compound 8 µM) | relative viability (GSK-J4 + Alpelisib; first compound 0.5 µM) | relative viability (GSK-J4 + Alpelisib; first compound 1.581 µM) | relative viability (GSK-J4 + Alpelisib; first compound 5 µM) | relative viability (GSK-J4 + Alpelisib; first compound 15.81 µM) | relative viability (GSK-J4 + Alpelisib; first compound 50 µM)
1 | ChaGo-K-1 | 0.581 | 0.452 | 0.474 | 0.426 | 0.333 | 0.618 | 0.501 | 0.461 | 0.592 | 0.518 | 0.93 | 0.823 | 0.872 | 0.923 | 0.816 |  |  |  |  | 
2 | EBC-1 |  |  |  |  |  |  |  |  |  |  | 0.112 | 0.0981 | 0.119 | 0.111 | 0.117 | 0.742 | 0.72 | 0.9 | 0.824 | 0.423
3 | EKVX | 0.248 | 0.196 | 0.234 | 0.25 | 0.231 | 0.535 |  | 0.569 |  | 0.43 | 0.798 | 0.753 | 0.735 | 0.869 | 0.788 | 0.848 | 0.769 | 0.952 | 0.824 | 0.776
4 | EMC-BAC-2 | 0.413 | 0.465 | 0.53 | 0.533 | 0.478 | 0.317 | 0.333 | 0.191 | 0.339 | 0.258 | 1.06 | 1.04 | 1.18 | 1.1 | 1.03 | 0.755 | 0.717 | 0.785 | 0.716 | 0.691
5 | EPLC-272H |  | 0.247 | 0.288 | 0.345 | 0.317 | 0.418 | 0.327 | 0.262 | 0.357 | 0.282 |  | 0.784 | 0.629 | 0.732 | 0.721 | 0.887 |  | 0.845 | 0.933 | 0.943
6 | H3255 | 0.352 | 0.419 | 0.313 | 0.377 | 0.338 | 0.361 | 0.364 | 0.416 | 0.369 | 0.386 | 0.773 | 0.764 | 0.927 | 1.04 | 0.922 | 0.591 | 0.64 | 0.614 | 0.593 | 0.531
7 | HARA | 0.384 | 0.415 | 0.436 | 0.41 | 0.404 | 0.267 |  |  | 0.24 | 0.258 | 0.823 | 0.858 | 0.895 | 0.895 | 0.197 | 0.815 | 0.441 |  | 0.785 | 0.646
8 | HCC-15 | 0.51 | 0.463 | 0.429 | 0.427 | 0.391 | 0.624 |  | 0.526 | 0.476 | 0.393 | 1.1 | 0.981 | 1.06 | 1.08 | 0.791 | 0.909 | 0.751 | 0.912 | 0.868 | 0.571
9 | HCC-44 | 0.118 | 0.124 | 0.0902 | 0.364 | 0.273 |  |  |  |  |  |  |  |  |  |  | 0.791 | 0.781 | 0.709 | 0.776 | 0.711
10 | HCC-78 | 0.421 | 0.557 | 0.566 | 0.81 | 0.551 | 0.562 | 0.374 | 0.651 | 0.3 | 0.319 | 0.51 | 0.547 | 0.534 | 0.601 | 0.58 | 0.403 | 0.31 | 0.501 |  | 0.316
